Results published in US11787847B2, “Method of identifying malodor modulating compounds” (FIRMENICH SA, priority 2017, dated 2023).

Legend:
Assay in all cases: cell-based dose-response, cAMP increase by HTRF, HEK293T cells (endogenous RTP1 activated) co-transfected with human Golf, Lucy-FLAG-Rho tagged receptor
mouse receptor Olfr1097 = biological target: T1, mouse receptor Olfr1097 (Mus musculus, UniProt Q8VGA2)
T1 construct: cAMP HTRF
T1 sequence (Q8VGA2 1-315): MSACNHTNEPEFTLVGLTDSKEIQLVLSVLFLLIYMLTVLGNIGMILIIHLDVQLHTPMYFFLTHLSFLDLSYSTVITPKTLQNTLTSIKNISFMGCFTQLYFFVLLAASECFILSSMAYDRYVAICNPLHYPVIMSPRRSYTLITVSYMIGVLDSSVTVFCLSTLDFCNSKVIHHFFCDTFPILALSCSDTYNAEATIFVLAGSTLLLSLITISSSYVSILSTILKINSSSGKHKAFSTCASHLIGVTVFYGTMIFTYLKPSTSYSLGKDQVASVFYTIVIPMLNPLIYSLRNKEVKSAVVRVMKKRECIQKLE
Description: (§1) Functional dose-response experiments were performed to evaluate the level of DMTS activity of the modified cell line expressing individual putative DMTS receptors. Using a cell-based assay, mouse receptor Olfr1193, Olfr1093, Olfr1097, Olrf166, Olfr169, Olfr738 and Olfr742, and human receptor OR4S2 and OR52N5 were tested in an HEK293T cell line wherein the endogenous RTP1 gene has been activated and the odorant receptor chaperone protein was expressed (described in WO2016/201153). The mouse receptor genes were tagged with a Lucy-FLAG®-Rho tag combination and the human receptors were tagged with a Rho-FLAG® tag combination resulting in a tag:receptor fusion protein for the cell based assay. Receptor genes were co-transfected with the canonical olfactory human G-protein alpha subunit Golf gene and were exposed to increasing concentrations of the malodor odorant. Co-expression of the human Golf activates the Gs transduction pathway that leads to an internal cAMP increase upon binding to the appropriate ligand. Odorant-induced activity was detected by measuring the cAMP increase in the cytosol using an Homogeneous Time Resolved Fluorescence (HTRF) based kit (CisBio, cAMP dynamic 2 kit, cat. 62AM4PEJ). […] The activity levels are reported by the potency of the DMTS induced-response for each receptor as a measure of the EC50 value (the effective concentration at which the receptor responds at its half-maximal activation efficacy level for a given compound).
(§2) Functional dose-response experiments were performed to confirm the DMTS activity on the DMTS receptors identified in Example 2 and to further characterize their response to DMDS. Using the same cell-based assay described in Example 2, mouse receptors Olfr1193, Olfr1093, Olfr1097, Olfr166, Olfr169, Olfr738, Olfr742 and of human odorant receptor OR4S2 were tested with increasing concentration of DMTS, DMDS or butyric acid (control). […] A weak response for OR4S2 and Olfr169 to butyric acid was visible but was too weak to consider butyric acid as a representative ligand for these receptors. The activity levels are reported by the potency of DMTS or DMDS induced-response for each receptor as a measure of the EC50 value, EC50DMTS and EC50DMDS respectively. […] Competitive antagonists at the malodor binding site of these receptors have the potential to reduce the unpleasant perception of both DMTS and DMDS.

mouse receptor Olfr166 = biological target: T2, mouse receptor Olfr166 (Mus musculus, UniProt Q0VEL6)
T2 construct: cAMP HTRF
T2 sequence (Q0VEL6 1-312): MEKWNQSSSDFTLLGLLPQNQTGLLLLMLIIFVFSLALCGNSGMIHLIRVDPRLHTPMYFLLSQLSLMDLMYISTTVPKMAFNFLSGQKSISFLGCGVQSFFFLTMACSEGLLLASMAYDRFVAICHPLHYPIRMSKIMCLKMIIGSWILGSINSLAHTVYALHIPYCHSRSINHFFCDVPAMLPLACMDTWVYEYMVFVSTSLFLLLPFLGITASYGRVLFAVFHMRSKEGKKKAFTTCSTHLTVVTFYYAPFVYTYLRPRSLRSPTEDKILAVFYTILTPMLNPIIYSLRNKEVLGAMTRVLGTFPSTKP
Description: as §1, §2

mouse receptor Olfr738 = biological target: T3, mouse receptor Olfr738 (Mus musculus, UniProt L7N1X7)
T3 construct: cAMP HTRF
T3 sequence (L7N1X7 1-311): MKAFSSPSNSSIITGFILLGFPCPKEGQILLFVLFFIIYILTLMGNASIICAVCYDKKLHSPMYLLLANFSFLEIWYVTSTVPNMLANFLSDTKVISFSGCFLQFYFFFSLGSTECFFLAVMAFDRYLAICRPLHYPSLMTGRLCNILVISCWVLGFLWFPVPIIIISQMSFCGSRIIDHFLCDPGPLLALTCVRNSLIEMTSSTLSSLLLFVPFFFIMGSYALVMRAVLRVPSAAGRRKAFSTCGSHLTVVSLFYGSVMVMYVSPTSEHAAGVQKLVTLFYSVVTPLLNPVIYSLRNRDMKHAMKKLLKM
Description: as §1, §2

mouse receptor Olfr1093 = biological target: T4, mouse receptor Olfr1093 (Mus musculus, UniProt B2RR12)
T4 construct: cAMP HTRF
T4 sequence (B2RR12 1-322): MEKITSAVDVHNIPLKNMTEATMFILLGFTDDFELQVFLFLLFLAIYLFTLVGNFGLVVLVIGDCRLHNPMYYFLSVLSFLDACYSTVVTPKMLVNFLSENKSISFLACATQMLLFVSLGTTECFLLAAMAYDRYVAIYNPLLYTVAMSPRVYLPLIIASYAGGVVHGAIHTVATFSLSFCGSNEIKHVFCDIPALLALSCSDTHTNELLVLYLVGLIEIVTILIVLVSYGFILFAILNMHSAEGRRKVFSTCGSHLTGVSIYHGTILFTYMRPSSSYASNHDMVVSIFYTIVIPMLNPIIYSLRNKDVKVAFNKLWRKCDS
Description: as §1, §2

mouse receptor Olfr742 = biological target: T5, mouse receptor Olfr742 (Mus musculus, UniProt A2RTP5)
T5 construct: cAMP HTRF
T5 sequence (A2RTP5 1-311): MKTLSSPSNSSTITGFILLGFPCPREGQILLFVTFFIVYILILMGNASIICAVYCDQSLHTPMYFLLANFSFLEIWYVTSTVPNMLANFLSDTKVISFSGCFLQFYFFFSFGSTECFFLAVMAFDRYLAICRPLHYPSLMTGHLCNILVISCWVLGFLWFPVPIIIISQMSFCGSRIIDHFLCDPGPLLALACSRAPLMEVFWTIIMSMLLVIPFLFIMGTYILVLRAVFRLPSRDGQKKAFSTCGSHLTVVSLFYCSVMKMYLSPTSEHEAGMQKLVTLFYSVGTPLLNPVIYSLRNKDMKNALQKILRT
Description: as §1, §2

EC50 (mouse receptor Olfr1097; FIG. 2, Example 2, SEQ ID NO: 6): 17 µM | EC50 (mouse receptor Olfr1097; FIG. 5, Example 5, SEQ ID NO: 6): 18 µM | EC50 (mouse receptor Olfr166; FIG. 2, Example 2, SEQ ID NO: 8): 5 µM | EC50 (mouse receptor Olfr166; FIG. 5, Example 5, SEQ ID NO: 8): 11 µM | EC50 (mouse receptor Olfr738; FIG. 2, Example 2, SEQ ID NO: 12): 369 µM | EC50 (mouse receptor Olfr738; FIG. 5, Example 5, SEQ ID NO: 12): 190 µM | EC50 (mouse receptor Olfr1093; FIG. 2, Example 2, SEQ ID NO: 4): 46 µM | EC50 (mouse receptor Olfr1093; FIG. 5, Example 5, SEQ ID NO: 4): 62 µM | EC50 (mouse receptor Olfr742; FIG. 2, Example 2, SEQ ID NO: 14): 7 µM | EC50 (mouse receptor Olfr742; FIG. 5, Example 5, SEQ ID NO: 14): 16 µM
Structure (SMILES): CSSSC [DMTS, dimethyl trisulfide]
